# Assay results: ChEMBL document CHEMBL5634169 (Bioorg Med Chem Lett, 2024)
# Test: Inhibition of Influenza A virus H5N1 neuraminidase
row,SMILES,IC50 [µM]
1,C/C(=N\NC(=O)c1ccc(C(C)(C)C)cc1)c1ccc(NC(=O)c2ccco2)cc1,28.6
2,COc1ccc(C(=O)N/N=C(\C)c2ccc(NC(=O)c3ccco3)cc2)cc1,32
3,CCC(CC)O[C@@H]1C=C(C(=O)O)C[C@H](N)[C@H]1NC(C)=O [OSELTAMIVIR CARBOXYLATE],0.31
4,C/C(=N\NC(=O)c1ccc([N+](=O)[O-])cc1)c1ccc(NC(=O)c2ccco2)cc1,1.53
5,C/C(=N\NC(=O)c1ccc([N+](=O)[O-])cc1)c1ccc(NC(=O)Cc2cccs2)cc1,6.1
6,C/C(=N\NC(=O)Cc1cccc2ccccc12)c1ccc(NC(=O)c2ccco2)cc1,46.8
7,C/C(=N\NC(=O)c1ccc(Cl)cc1)c1ccc(NC(=O)Cc2cccs2)cc1,0.31
8,C/C(=N\NC(=O)Cc1cccc2ccccc12)c1ccc(NC(=O)Cc2cccs2)cc1,2.78
9,C/C(=N\NC(=O)c1ccc(C(C)(C)C)cc1)c1ccc(NC(=O)Cc2cccs2)cc1,0.94
10,C/C(=N\NC(=O)c1ccc(O)cc1)c1ccc(NC(=O)c2ccco2)cc1,0.2
11,COc1ccc(C(=O)N/N=C(\C)c2ccc(NC(=O)Cc3cccs3)cc2)cc1,0.13
12,C/C(=N\NC(=O)c1ccc(F)cc1)c1ccc(NC(=O)Cc2cccs2)cc1,23.6
13,C/C(=N\NC(=O)c1ccc(O)cc1)c1ccc(NC(=O)Cc2cccs2)cc1,0.65
14,C/C(=N\NC(=O)c1ccc(Cl)cc1)c1ccc(NC(=O)c2ccco2)cc1,21.3
15,C/C(=N\NC(=O)c1ccc(F)cc1)c1ccc(NC(=O)c2ccco2)cc1,19.4

# Test: Cytotoxicity against human A549 cells by SRB assay
# Assay type: toxicity, cell-based
row,SMILES,CC50 [µM]
1,CCC(CC)O[C@@H]1C=C(C(=O)O)C[C@H](N)[C@H]1NC(C)=O [OSELTAMIVIR CARBOXYLATE],61.2
2,COc1ccc(C(=O)N/N=C(\C)c2ccc(NC(=O)Cc3cccs3)cc2)cc1,37.6
3,C/C(=N\NC(=O)c1ccc(F)cc1)c1ccc(NC(=O)Cc2cccs2)cc1,55.3
